Results reported in patent US10618916B2, “Heterocyclic compounds as immunomodulators” (Incyte Corporation, priority 2018, dated 2020).

Experiments:
[1] = target: PD-1/PD-L1 protein/protein interaction (recombinant human PD-L1 and human PD-1) (Homo sapiens (Human), UniProt Q9NZQ7); assay: Homogeneous Time-Resolved Fluorescence (HTRF) PD-1/PD-L1 binding assay
Procedure, shortened: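 Human PD-L1 (19-238, C-His; 10 nM final) and PD-1 (25-167, C-Fc; 3 nM final) preincubated 40 min with inhibitor in PBS pH 7.4, 0.05% Tween-20, 0.1% BSA, 1% DMSO, 25 °C. Eu-anti-human IgG (1 nM) and anti-His-APC (20 nM) added for 60 min; 665/620 nm ratio; IC50 from percent-control curves.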

[2] = tested on: U2OS/PD-L1 cells and Jurkat-PD-1-SHP cells; assay: Src homology region 2 domain-containing phosphatase (SHP) assay; assay type: cell-based; conditions: Homo sapiens, U2OS
Procedure, shortened: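 U2OS/PD-L1 and Jurkat-PD-1-SHP cells (5000 each per well) were co-incubated with compound for 2 h at 37 °C in RPMI1640 with 1% FBS, 0.05% DMSO final. PathHunter chemiluminescence was read after 1 h at room temperature, and IC50 was fitted from percent of DMSO-control activity.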

[3] = tested on: PD-L1 aAPC/CHO-K1 cells and Jurkat-PD-1-NFAT effector cells; assay: Nuclear factor of activated T-cells (NFAT) assay; assay type: cell-based; conditions: Cricetulus griseus, CHO-K1
Procedure, shortened: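 CHO-K1 cells expressing PD-L1 aAPC were co-cultured with Jurkat-PD-1-NFAT effector cells in RPMI 1640 with 1% FBS and compound (0.4% DMSO; top concentration 2 μM) for 24 h at 37 °C. Bio-Glo luminescence was read, fold induction normalised to DMSO wells, and EC50 fitted from percent of control compound activity.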

PD-L1 = PD-L1 (Homo sapiens (Human), UniProt Q9NZQ7); assay: PD-L1 whole blood internalization assay; assay type: cell-based; conditions: 24 HR, PD-L1 expression on CD14+ cells, human interferon γ
Sequence of PD-L1 (Q9NZQ7 19-290): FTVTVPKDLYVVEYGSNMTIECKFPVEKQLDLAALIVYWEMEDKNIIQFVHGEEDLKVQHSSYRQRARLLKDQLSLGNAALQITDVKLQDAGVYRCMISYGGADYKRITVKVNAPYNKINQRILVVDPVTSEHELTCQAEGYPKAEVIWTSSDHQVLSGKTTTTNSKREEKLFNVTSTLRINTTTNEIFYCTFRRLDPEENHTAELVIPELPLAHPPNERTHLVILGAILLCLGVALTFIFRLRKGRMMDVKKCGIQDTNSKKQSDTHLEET

Sequence of PD-1/PD-L1 protein/protein interaction (recombinant human PD-L1 and human PD-1) (Q9NZQ7 19-238): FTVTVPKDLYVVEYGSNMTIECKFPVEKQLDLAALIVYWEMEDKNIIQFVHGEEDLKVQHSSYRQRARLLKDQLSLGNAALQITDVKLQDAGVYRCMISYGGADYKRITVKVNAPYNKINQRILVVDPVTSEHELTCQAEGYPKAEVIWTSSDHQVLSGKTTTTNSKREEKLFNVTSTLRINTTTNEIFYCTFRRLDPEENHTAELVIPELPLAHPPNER

Row | Compound | IC50 [1] [nM] | IC50 [2] [nM] | IC50 (PD-L1) [nM] | EC50 [3] [nM]
1 | Cn1c(C(=O)Nc2cccc(-c3cccc(NC(=O)c4nc5c(n4C)CCN(C[C@@H](O)CO)C5)c3Cl)c2Cl)nc2c1CCN(CCC13CCC(C(=O)O)(CC1)C3)C2 [Example 11, (R)-4-(2-(2-((2,2′-dichloro-3′-(5-(2,3-dihydroxypropyl)-1-methyl-4,5,6,7-tetrahydro-1H-imidazo[4,5-c]pyridine-2-carboxamido)-[1,1′-biphenyl]-3-yl)carbamoyl)-1-methyl-1,4,6,7-tetrahydro-5H-imidazo[4,5-c]pyridin-5-yl)ethyl)bicyclo[2.2.1]heptane-1-carboxylic acid] | 5 to 10 | 10 to 100 | 100 to 500 | 10 to 100
2 | Cn1c(C(=O)Nc2cccc(-c3cccc(NC(=O)c4nc5c(n4C)CCN(Cc4cc[nH]n4)C5)c3Cl)c2Cl)nc2c1CCN(CCC13CCC(C(=O)O)(CC1)C3)C2 [Example 9, 4-(2-(2-((3′-(5-((1H-pyrazol-3-yl)methyl)-1-methyl-4,5,6,7-tetrahydro-1H-imidazo[4,5-c]pyridine-2-carboxamido)-2,2′-dichloro-[1,1′-biphenyl]-3-yl)carbamoyl)-1-methyl-1,4,6,7-tetrahydro-5H-imidazo[4,5-c]pyridin-5-yl)ethyl)bicyclo[2.2.1]heptane-1-carboxylic acid] | ≤ 5 | ≤ 10 | 10 to 100 | 10 to 100
3 | Cn1c(C(=O)Nc2cccc(-c3cccc(NC(=O)c4nc5c(n4C)CCN(CCC46CCC(C(=O)O)(CC4)C6)C5)c3Cl)c2Cl)nc2c1CCN(CCC13CCC(C(=O)O)(CC1)C3)C2 [Example 17, 4,4′-(((((2,2′-dichloro-[1,1′-biphenyl]-3,3′-diyl)bis(azanediyl))bis(carbonyl))bis(1-methyl-1,4,6,7-tetrahydro-5H-imidazo[4,5-c]pyridine-2,5-diyl))bis(ethane-2,1-diyl))bis(bicyclo[2.2.1]heptane-1-carboxylic acid)] | ≤ 5 | ≤ 10 | 10 to 100 | 10 to 100

Further lines, with some results ahead:

Row | IC50 [1] [nM] | IC50 [2] [nM] | IC50 (PD-L1) [nM] | Compound | EC50 [3] [nM]
4 | ≤ 5 | 10 to 100 | 100 to 500 | Cc1c(NC(=O)c2nc3c(n2C)CCN(CC24CCC(C(=O)O)(CC2)C4)C3)cccc1-c1cccc(NC(=O)c2nc3c(n2C)CCN(CCC24CCC(C(=O)O)(CC2)C4)C3)c1Cl [Example 35, 4-((2-((3′-(5-(2-(4-carboxybicyclo[2.2.1]heptan-1-yl)ethyl)-1-methyl-4,5,6,7-tetrahydro-1H-imidazo[4,5-c]pyridine-2-carboxamido)-2′-chloro-2-methyl-[1,1′-biphenyl]-3-yl)carbamoyl)-1-methyl-1,4,6,7-tetrahydro-5H-imidazo[4,5-c]pyridin-5-yl)methyl)bicyclo[2.2.1]heptane-1-carboxylic acid] | 100 to 500
5 | ≤ 5 | ≤ 10 | 100 to 500 | Cc1c(NC(=O)c2nc3c(n2C)CCN(CCC24CCC(C(=O)O)(CC2)C4)C3)cccc1-c1cccc(NC(=O)c2nc3c(n2C)CCN(CCC24CCC(C(=O)O)(CC2)C4)C3)c1C [Example 54, 4,4′-(((((2,2′-dimethyl-[1,1′-biphenyl]-3,3′-diyl)bis(azanediyl))bis(carbonyl))bis(1-methyl-1,4,6,7-tetrahydro-5H-imidazo[4,5-c]pyridine-2,5-diyl))bis(ethane-2,1-diyl))bis(bicyclo[2.2.1]heptane-1-carboxylic acid)] | 10 to 100
6 | ≤ 5 | ≤ 10 | 100 to 500 | Cc1c(NC(=O)c2nc3c(n2C)CCN(CCC24CCC(C(=O)O)(CC2)C4)C3)cccc1-c1cccc(NC(=O)c2nc3c(n2C)CCN(CC24CCC(C(=O)O)(CC2)C4)C3)c1Cl [Example 44, 4-((2-((3′-(5-(2-(4-carboxybicyclo[2.2.1]heptan-1-yl)ethyl)-1-methyl-4,5,6,7-tetrahydro-1H-imidazo[4,5-c]pyridine-2-carboxamido)-2-chloro-2′-methyl-[1,1′-biphenyl]-3-yl)carbamoyl)-1-methyl-1,4,6,7-tetrahydro-5H-imidazo[4,5-c]pyridin-5-yl)methyl)bicyclo[2.2.1]heptane-1-carboxylic acid] | 10 to 100
